Experiments:
Assay in all cases: Enzyme inhibiting activity of MMPs, fluorogenic peptide substrate
Format in all cases: biochemical
MMP-9 = biological target: T1, MMP-9 (Homo sapiens, UniProt P14780); conditions: substrate MOCAc-Pro-Leu-Gly-Leu-A2Pr(DNP)-Ala-Arg-NH2, fluorescent intensity
T1 construct: purchased Calbiochem (EMD/MERCK Biosciences)
How it was run: (§1)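 Recombinant human enzymes with the fluorogenic substrate MOCAc-Pro-Leu-Gly-Leu-A2Pr(DNP)-Ala-Arg-NH2. Fluorescence was read for enzyme+substrate±inhibitor and substrate±inhibitor blanks.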

MMP-2 = biological target: T2, MMP-2 (Homo sapiens, UniProt P08253); conditions: substrate MOCAc-Pro-Leu-Gly-Leu-A2Pr(DNP)-Ala-Arg-NH2, fluorescent intensity
T2 construct: purchased Calbiochem (EMD/MERCK Biosciences)
T2 sequence (P08253 110-660): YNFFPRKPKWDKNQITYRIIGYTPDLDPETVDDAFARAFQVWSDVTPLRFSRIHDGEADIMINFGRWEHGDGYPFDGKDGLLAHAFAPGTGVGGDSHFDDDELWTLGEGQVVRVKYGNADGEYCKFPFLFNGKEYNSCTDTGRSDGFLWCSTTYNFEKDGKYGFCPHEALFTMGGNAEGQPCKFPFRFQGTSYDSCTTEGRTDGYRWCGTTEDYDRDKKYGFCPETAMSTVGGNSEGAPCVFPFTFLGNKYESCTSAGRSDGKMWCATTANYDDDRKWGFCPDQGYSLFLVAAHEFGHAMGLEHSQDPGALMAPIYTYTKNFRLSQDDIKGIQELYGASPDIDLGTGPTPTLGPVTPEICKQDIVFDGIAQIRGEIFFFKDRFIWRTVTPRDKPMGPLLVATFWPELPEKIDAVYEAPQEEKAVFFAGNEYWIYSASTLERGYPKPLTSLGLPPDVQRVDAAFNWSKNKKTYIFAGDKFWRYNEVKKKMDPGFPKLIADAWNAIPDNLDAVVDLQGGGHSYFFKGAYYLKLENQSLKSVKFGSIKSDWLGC
How it was run: as §1

MMP-13 = biological target: T3, MMP-13 (Homo sapiens, UniProt P45452); conditions: APMA-activated proenzyme; substrate MOCAc-Pro-Leu-Gly-Leu-A2Pr(DNP)-Ala-Arg-NH2, fluorescent intensity; read-out: IC50 MMP-13
T3 construct: purchased Calbiochem (EMD/MERCK Biosciences)
How it was run: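 Pro-MMP-13 was activated with 1 mM APMA at 37° C for 2 h in 50 mM Tris-HCl pH 7.6, 0.3 M NaCl, 10 mM CaCl2, 0.005% Brij35. Activity was read by fluorescence using MOCAc-Pro-Leu-Gly-Leu-A2Pr(DNP)-Ala-Arg-NH2 substrate, with enzyme and inhibitor blank corrections. IC50 is the concentration giving 50% inhibition.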

T1 sequence (P14780 94-707): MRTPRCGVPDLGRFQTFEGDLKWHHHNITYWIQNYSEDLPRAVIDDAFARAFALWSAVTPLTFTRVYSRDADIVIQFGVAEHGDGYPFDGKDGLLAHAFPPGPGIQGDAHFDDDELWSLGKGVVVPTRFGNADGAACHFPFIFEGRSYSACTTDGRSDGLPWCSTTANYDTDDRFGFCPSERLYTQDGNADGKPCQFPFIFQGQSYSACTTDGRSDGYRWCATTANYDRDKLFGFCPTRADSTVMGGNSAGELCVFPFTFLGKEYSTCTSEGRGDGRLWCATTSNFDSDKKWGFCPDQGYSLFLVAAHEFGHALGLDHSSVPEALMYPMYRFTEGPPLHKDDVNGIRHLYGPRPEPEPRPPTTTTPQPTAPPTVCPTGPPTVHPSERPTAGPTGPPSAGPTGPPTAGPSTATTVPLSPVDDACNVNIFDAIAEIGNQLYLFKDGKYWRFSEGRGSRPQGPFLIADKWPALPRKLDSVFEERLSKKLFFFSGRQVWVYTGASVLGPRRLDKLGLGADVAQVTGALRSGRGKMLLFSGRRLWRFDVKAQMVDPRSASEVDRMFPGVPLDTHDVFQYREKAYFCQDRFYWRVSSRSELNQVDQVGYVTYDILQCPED

IC50 (MMP-9) [µM] | IC50 (MMP-2) [µM] | IC50 (MMP-13) [µM] | Compound
> 10 | > 10 | 0.014 | COc1ccc(Cn2ccc3ccc(C#Cc4ccc(N5CCN(S(=O)(=O)N[C@@H](C(=O)O)C(C)C)CC5)cc4)cc3c2=O)cc1 [III-167, (R)-2-(4-{4-[2-(4-methoxybenzyl)-1-oxo-1,2-dihydroisoquinolin-7-ylethynyl]-phenyl}-piperazine-1-sulfonylamino)-3-methylbutanoic acid]
> 10 | > 10 | 0.004 | CNC(=O)c1ccc(COc2cccc(-c3csc(C#Cc4ccc(N5CCN(S(=O)(=O)N[C@@H](C(=O)O)C(C)C)CC5)cc4)n3)c2)cc1 [Compound V-79, (R)-3-methyl-2-[4-(4-{4-[3-(4-methylcarbamoylbenzyloxy)-phenyl]-thiazol-2-ylethynyl}-phenyl)-piperazine-1-sulfonylamino]-butanoic acid]
> 10 | 1 to 10 | 0.008 | CC(C)[C@@H](NS(=O)(=O)N1CCN(c2ccc(C#Cc3ccnc(C(=O)NCc4cc(F)cc(F)c4)c3)cc2)CC1)C(=O)O [III-192, (R)-2-(4-{4-[2-(3,5-difluorobenzylcarbamoyl)-pyridin-4-ylethynyl]-phenyl}-piperazine-1-sulfonylamino)-3-methylbutanoic acid]
> 10 | 1 to 10 | 0.008 | COCCOc1ccc(C#Cc2ccc(N3CCN(S(=O)(=O)N[C@H](C)C(=O)O)CC3)cc2)cc1-c1ncc(CC(=O)NCc2ccccc2)o1 [Compound V-19, (R)-2-(4-{4-[3-[5-(benzylcarbamoylmethyl)-oxazol-2-yl]-4-(2-methoxyethoxy)-phenylethynyl]-phenyl}-piperazine-1-sulfonylamino)-proponic acid]

Source: US20100099676A1 (SHIONOGI & CO., LTD., priority 2006, published 2010)
